Counter-ions that a name gives are not always drawn.

From the supplement of paper PMC3974653 come the findings set out here.

This assay relates to MTT (mouse pheochromocytoma). Nature of the assay: IC50 of cell viability (ATP content). As to conditions: (24 or 48 h). The method in brief:
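Library compounds in DMSO (23 nl by pintool, 8 concentrations, final 0.5 nM to 46 µM) were applied for 24 or 48 hrs to MTT mouse pheochromocytoma cells that had been cultured overnight at 37°C, 5% CO2 in white 1536-well plates. Cell viability was measured by CellTiter-Glo ATP luminescence, read after 15 minutes, with positive-control wells set at 100% and DMSO wells at 0%. A four-parameter logistic fit of the normalised signals yielded the IC50.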
As for `NC(=O)OC[C@H](O)COc1ccc(Cl)cc1` [Chlorphensin carbamate], the “IC50 of cell viability” value was more than 46 µM.

In the case of `CC(C)(N)Cc1ccc(Cl)cc1` [Chlorphentermine hydrochloride], the “IC50 of cell viability” value is more than 46 µM.

With `CCCNC(=O)N[S+](=O)([O-])c1ccc(Cl)cc1` [Chlorpropamide], the “IC50 of cell viability” value was more than 46 µM.

In the case of `CN(C)CC/C=C1\c2ccccc2Sc2ccc(Cl)cc21` [Chlorprothixene], the “IC50 of cell viability” value is more than 46 µM.

In the case of `CN(C)[C@H]\1[C@@H]2C[C@H]3\C(=C(\O)[C@@]2(O)C(=O)\C(=C1O)C(N)=O)C(=O)C4=C(O)C=CC(=C4[C@]3(C)O)Cl` [Chlortetracycline hydrochloride], the “IC50 of cell viability” value was more than 46 µM.

In the case of `COC(=O)c1c(Cl)c(Cl)c(C(=O)OC)c(Cl)c1Cl` [Chlorthal-dimethyl], the “IC50 of cell viability” value is more than 46 µM.

`N[S+](=O)([O-])c1cc([C@]2(O)NC(=O)c3ccccc32)ccc1Cl` [Chlorthalidone]: the “IC50 of cell viability” value is more than 46 µM.

As to `C[C@H](CCC(=O)O)[C@H]1CC[C@@H]2[C@H]3[C@@H](C[C@@H](O)[C@]21C)[C@]1(C)CC[C@H](O)C[C@@H]1C[C@@H]3O` [Cholic Acid], the “IC50 of cell viability” value was more than 46 µM.

Take `CC(=O)[O-].C[N+](C)(C)CCO` [Cholin acetate]: the “IC50 of cell viability” value was more than 46 µM.

On to `C[N+](C)(C)CCO` [Choline bromide], for which the “IC50 of cell viability” value is more than 46 µM.

Regarding `CCOC(=O)COc1ccc2c(C)c(CC[NH+](CC)CC)c(=O)oc2c1` [Chromonar hydrochloride], the “IC50 of cell viability” value was more than 46 µM.

Consider `Cc1cc(O)c2c(O)c3c(O)cccc3cc2c1` [Chrysarobin], for which the “IC50 of cell viability” value was more than 46 µM.

In the case of `N#CCC(=O)NN` [Ciacetacida], the “IC50 of cell viability” value was more than 46 µM.

Regarding `c1ccc(C2(c3ccccc3)CC2C2=NCCN2)cc1` (stereo unspecified) [Cibenzoline succinate], the “IC50 of cell viability” value was more than 46 µM.

As for `COc1cc(/C=C2\CCC/C(=C\c3ccc(O)c(OC)c3)C2=O)ccc1O` [Ciclovalona], the “IC50 of cell viability” value was more than 46 µM.

With `CC1(COc2ccc(CC3SC(=O)NC3=O)cc2)CCCCC1` (stereo unspecified) [Ciglitizone], the “IC50 of cell viability” value is more than 46 µM.

Take `CCOC(=O)[C@H](CCc1ccccc1)N[C@H]1CCCN2CCC[C@@H](C(=O)O)N2C1=O` [Cilazapril]: the “IC50 of cell viability” value was more than 46 µM.

Turning to `COCCOC(=O)C1=C(C)NC(C)=C(C(=O)OC/C=C/c2ccccc2)C1c1cccc([N+](=O)[O-])c1` (stereo unspecified) [Cilnidipine], the “IC50 of cell viability” value was more than 46 µM.

In the case of `CN(C1CCCCC1)C(=O)CCCOC2=CC\3=C(NC(=O)\C=C3)C=C2` [Cilostamide], the “IC50 of cell viability” value was more than 46 µM.

`O=C(/C=C/c1cccc(F)c1)NC1CC1` [Cinflumide]: the “IC50 of cell viability” value is more than 46 µM.

Turning to `OC/C=C/c1ccccc1` [Cinnamyl alcohol], the “IC50 of cell viability” value was more than 46 µM.

As to `C(=C/c1ccccc1)/CN1CCN(C(c2ccccc2)c2ccccc2)CC1` [Cinnarizine], the “IC50 of cell viability” value was more than 46 µM.

Regarding `CCN1\N=C(\C(O)=O)C(=O)C2=C1C=C3OCOC3=C2` [Cinoxacin], the “IC50 of cell viability” value was more than 46 µM.

For the compound `CC(C)(Oc1ccc(C2CC2(Cl)Cl)cc1)C(=O)O` (stereo unspecified) [Ciprofibrate], the “IC50 of cell viability” value is more than 46 µM.

On to `OC(=O)\C1=C\N(C2CC2)C3=CC(=C(F)C=C3C1=O)N4CCNCC4` [Ciprofloxacin hydrochloride], for which the “IC50 of cell viability” value is more than 46 µM.

Consider `COc1cc(N)c(Cl)cc1C(=O)N[C@@H]1CCN(CCCOc2ccc(F)cc2)C[C@H]1OC` [Cisapride], for which the “IC50 of cell viability” value is more than 46 µM.

As for `O=C(O)CC(O)(CC(=O)O)C(=O)O` [Citric acid], the “IC50 of cell viability” value is more than 46 µM.

Consider `CN1C(=O)CN2CCc3ccccc3C2c2cc(Cl)ccc21` (stereo unspecified) [Clazolam], for which the “IC50 of cell viability” value was more than 46 µM.

As for `COc1cc(N)c(Cl)cc1C(=O)NC1CCN(Cc2ccccc2)CC1` [Clebopride maleate], the “IC50 of cell viability” value is more than 46 µM.

Regarding `CN1CCC[C@@H]1CCO[C@](C)(c1ccccc1)c1ccc(Cl)cc1` [Clemastine fumarate], the “IC50 of cell viability” value is more than 46 µM.

As to `Clc1ccc(Cn2c(CN3CCCC3)nc3ccccc32)cc1` [Clemizole hydrochloride], the “IC50 of cell viability” value was more than 46 µM.

As for `C[N@@+]12CCC(CC1)[C@@H](C2)OC(=O)C(O)(C3=CC=CC=C3)C4=CC=CC=C4` [Clidinium bromide], the “IC50 of cell viability” value was more than 46 µM.

On to `CC(C)(C)C(=O)C(Oc1ccc(Cl)cc1)n1ccnc1` (stereo unspecified) [Climbazole], for which the “IC50 of cell viability” value was more than 46 µM.

`CCC[C@@H]1CC(C(=O)NC(C2O[C@H](SC)C(OP(=O)(O)O)[C@H](O)[C@H]2O)[C@H](C)Cl)N(C)C1` (stereo partly specified) [Clindamycin 2-phosphate]: the “IC50 of cell viability” value was more than 46 µM.

For `CCC[C@H]1C[C@H](C(=O)N[C@@H]([C@@H]2O[C@@H](SC)[C@@H](O)[C@@H](O)[C@H]2O)[C@H](C)Cl)N(C)C1` [Clindamycin hydrochloride], the “IC50 of cell viability” value is more than 46 µM.

In the case of `CCCCCCCCCCCCCCCC(=O)O[C@@H]1[C@@H](O)[C@@H](O)C(C(NC(=O)[C@H]2C[C@@H](CCC)CN2C)C(C)Cl)O[C@@H]1SC` (stereo partly specified) [Clindamycin palmitate], the “IC50 of cell viability” value was more than 46 µM.

Turning to `C[C@@H]1C[C@@H]2[C@H]3C[C@@H](F)\C4=C\C(=O)\C=C/[C@]4(C)[C@@]3(Cl)[C@@H](O)C[C@@]2(C)[C@@H]1C(=O)COC(=O)C(C)(C)C` [Clocortolone pivalate], the “IC50 of cell viability” value is more than 46 µM.

Regarding `O=P([O-])(O)C(Cl)(Cl)P(=O)([O-])O.[Na+].[Na+]` [Clodronic acid], the “IC50 of cell viability” value was more than 46 µM.

With `CC(C)/N=c1\cc2n(-c3ccc(Cl)cc3)c3ccccc3nc-2cc1Nc1ccc(Cl)cc1` [Clofazimine], the “IC50 of cell viability” value was more than 46 µM.

Regarding `N[S+](=O)([O-])c1ccc(Cl)c([S+](N)(=O)[O-])c1` [Clofenamide], the “IC50 of cell viability” value was more than 46 µM.

Consider `O=C(CCl)c1ccc(Oc2ccc(C(=O)CCl)cc2)cc1` [Clofenoxyde], for which the “IC50 of cell viability” value is more than 46 µM.

Turning to `CCOC(=O)C(C)(C)Oc1ccc(Cl)cc1` [Clofibrate], the “IC50 of cell viability” value was more than 46 µM.

`CC(C)(Oc1ccc(Cl)cc1)C(=O)O` [Clofibric_acid]: the “IC50 of cell viability” value was more than 46 µM.

Turning to `O=C(Nc1ccc(Cl)cc1)Nc1ccc(Cl)c(C(F)(F)F)c1` [Cloflucarban], the “IC50 of cell viability” value is more than 46 µM.

Consider `CCOC(=O)NC(C)(C)Cc1ccc(Cl)cc1` [Cloforex], for which the “IC50 of cell viability” value was more than 46 µM.

For `COc1ccc2c(C(=O)c3ccc(Cl)cc3)c(C)n(CC(=O)O)c2c1` [Clometacine], the “IC50 of cell viability” value was more than 46 µM.

For the compound `C[C@@H]1CCC[C@H](C)N1NC(=O)c1ccc(Cl)c([S+](N)(=O)[O-])c1` [Clopamide], the “IC50 of cell viability” value was more than 46 µM.

With `Clc1ccc([C@@H](OCCN2CCCCC2)c2ccccc2)cc1` [Cloperastine hydrochloride], the “IC50 of cell viability” value was more than 46 µM.

Turning to `Cc1cc(CC(=O)O)c(C)n1-c1ccc(Cl)cc1` [Clopirac], the “IC50 of cell viability” value was more than 46 µM.

As for `C#CCN(C)CCCOc1ccc(Cl)cc1Cl.Cl` [Clorgyline hydrochloride], the “IC50 of cell viability” value was more than 46 µM.

`O=C1c2ccccc2C(=O)C1c1ccc(Cl)cc1` [Clorindione]: the “IC50 of cell viability” value was more than 46 µM.

With `Oc1ccc(Cl)cc1Cc1ccccc1` [Clorophene], the “IC50 of cell viability” value is more than 46 µM.

Take `Nc1cc(C(Cl)=C(Cl)Cl)c([S+](N)(=O)[O-])cc1[S+](N)(=O)[O-]` [Clorsulon]: the “IC50 of cell viability” value is more than 46 µM.

Consider `C[C@]12CCC3C(CCC4=C(Cl)C(=O)CC[C@@]43C)C1CCC2O` (stereo partly specified) [Clostebol], for which the “IC50 of cell viability” value is more than 46 µM.

With `CN1CCN(C2=Nc3ccccc3Sc3ccc(Cl)cc32)CC1` [Clothiapine], the “IC50 of cell viability” value was more than 46 µM.

For the compound `Clc1ccccc1C(c1ccccc1)(c1ccccc1)n1ccnc1` [Clotrimazole], the “IC50 of cell viability” value is more than 46 µM.

As for `[Na+].CC1=C(C(=O)N[C@H]2[C@H]3SC(C)(C)[C@H]([N@]3C2=O)C([O-])=O)C(=NO1)C4=C(Cl)C=CC=C4` [Cloxacillin sodium salt], the “IC50 of cell viability” value was more than 46 µM.

For the compound `O.O.O.O.O.O.O.O=S(=O)([O-])[O-].[Co+2]` [Cobalt sulfate heptahydrate], the “IC50 of cell viability” value is more than 46 µM.

In the case of `COC1=C2OC3C(O)\C=C/C4[C@H]5CC(=C2[C@@]34CCN5C)C=C1` (stereo partly specified) [Codeine], the “IC50 of cell viability” value was more than 46 µM.

Turning to `COC1=C(OC)C(=O)C(C/C=C(\C)CC/C=C(\C)CC/C=C(\C)CC/C=C(/C)CC/C=C(\C)CC/C=C(\C)CC/C=C(\C)CC/C=C(\C)CC/C=C(\C)CCC=C(C)C)=C(C)C1=O` [Coenzyme Q10], the “IC50 of cell viability” value is more than 46 µM.

Regarding `CCCCC(CC)COC(=O)CC(C(=O)OCC(CC)CCCC)S(=O)(=O)[O-]` (stereo unspecified) [Colace], the “IC50 of cell viability” value is more than 46 µM.

For the compound `CC(C)CCCC(C)C1CC(=O)C2=C3CCC4CC(O)CCC4(C)C3CCC21C` (stereo unspecified) [Colestolone], the “IC50 of cell viability” value was more than 46 µM.

As to `C[C@]\12CCC(=O)\C=C1CC[C@@H]3[C@@H]2CC[C@@]4(C)[C@H]3CC[C@]4(O)C(=O)CO` [Cortexolone], the “IC50 of cell viability” value was more than 46 µM.

Turning to `C[C@]12C[C@H](O)[C@H]3[C@@H](CCC/4=C/C(=O)CC[C@]34C)[C@@H]1CC[C@@H]2C(=O)CO` [Corticosterone], the “IC50 of cell viability” value was more than 46 µM.

`CC(=O)OCC(=O)[C@@]1(O)CC[C@H]2[C@@H]3CCC/4=C/C(=O)CC[C@]4(C)[C@H]3C(=O)C[C@]12C` [Cortisone 21-acetate]: the “IC50 of cell viability” value is more than 46 µM.

Consider `O=C\1OC2=C(C=CC=C2)\C=C1` [Coumarin], for which the “IC50 of cell viability” value is more than 46 µM.
